The record followed here is patent publication US4923865A, “Substituted 1-(1H-imidazol-4-yl)alkyl-benzamides as anti-ischemics and as alpha-2-adrenergic receptor agonists” (U C B Societe Anonyme, priority 1988, dated 1990).

Like-named read-outs stand apart in the source and are kept apart here.

One assay addresses T1, α2 -adrenergic receptors (Rattus norvegicus, UniProt P22909).
T1 construct: three different preparations of rat brain membranes; from tissue; host or cells: rat brain membranes
T1 sequence (P22909 1-465): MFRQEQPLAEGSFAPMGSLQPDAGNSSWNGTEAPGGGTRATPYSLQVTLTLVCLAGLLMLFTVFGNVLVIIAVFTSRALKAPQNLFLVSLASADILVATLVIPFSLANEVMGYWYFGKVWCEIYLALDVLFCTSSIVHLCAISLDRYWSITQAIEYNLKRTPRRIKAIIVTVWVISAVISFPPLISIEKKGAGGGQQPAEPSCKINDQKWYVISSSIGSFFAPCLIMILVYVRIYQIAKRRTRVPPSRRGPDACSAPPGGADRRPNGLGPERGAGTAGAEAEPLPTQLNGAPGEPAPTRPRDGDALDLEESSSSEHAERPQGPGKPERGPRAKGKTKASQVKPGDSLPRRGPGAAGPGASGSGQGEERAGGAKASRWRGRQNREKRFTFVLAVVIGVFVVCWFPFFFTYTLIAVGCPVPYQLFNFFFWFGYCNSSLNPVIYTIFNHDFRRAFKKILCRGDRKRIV
The experiment in a line: Competitive binding assay with [^3 H]clonidine on rat brain membranes. Particulars: 30 minutes incubation, read-out: IC50 (50% inhibition of the binding of [^3 H]clonidine). The text has this:
(a) Competitive binding assay with a radioligand. The object of competitive binding assays is to measure the affinity of the compounds of the invention for α2 -adrenoceptors. These conventional experiments involve the competition for binding to α2 -adrenergic receptors between the tested compound on the one hand, and on the other hand, a radioligand which, in this particular case of α2 -adrenergic receptors, is the [^3 H]clonidine which is known to be a specific α2 -adrenergic agonist.
The method used is that of D. C. U'PRICHARD et al., Mol. Pharmacol. 13, (1977), 454-473.
The displacement curves for binding of [^3 H]clonidine have been determined with nine concentrations of compound A, ranging from 10^-4 to 10^-10 mole/l, and with three different preparations of rat brain membranes. The samples were incubated for 30 minutes, and then filtered under reduced pressure using a Whatman GF/B filter. The filters are washed three times with 5 ml of Tris-HCl buffer (pH 7.5 at 0° C.) and then dried for one minute. The radioactivity is measured in an Econofluor (-NEN Corp.) medium. The [^3 H]clonidine (25.5 Ci/mmole) used is provided by Amersham.
The affinity of compound A for the α2 -adrenergic receptors has been calculated from the displacement curves of the [^3 H]clonidine. […]

The subject of a further assay is myocardial ischemia. The experiment in a line: Artificially induced acute coronary insufficiency in an awake dog (ST-segment elevation). The note with it: Canis lupus familiaris, 0.1 h, intravenous, 6 min coronary occlusion, groups of ten animals, read-out: DE20 (dose producing a mean reduction of at least 20% of the ST-segment elevation). The format is in vivo. An excerpt: Because of the reduction in the oxygen supply which results from this, the occlusion produces myocardial ischemia which is expressed on the electrocardiogram by a reproducible and quantifiable ST-segment elevation. The anti-ischemic action of a compound results in a reduction of the magnitude of the ST-segment elevation. (P. R. MAROKO and E. BRAUNWALD, Circulation, 53, (1976, Suppl. I), 162-168; S. E. EPSTEIN et al., Circulation, 53, (1976, Suppl. I), 191-197).

In assay [1] the target is T2, presynaptic α2 -adrenergic receptors (Cavia porcellus, UniProt Q60474).
T2 construct: Stimulation of a guinea-pig ileum; from tissue; host or cells: guinea-pig ileum longitudinal muscle strips
T2 sequence (Q60474 1-464): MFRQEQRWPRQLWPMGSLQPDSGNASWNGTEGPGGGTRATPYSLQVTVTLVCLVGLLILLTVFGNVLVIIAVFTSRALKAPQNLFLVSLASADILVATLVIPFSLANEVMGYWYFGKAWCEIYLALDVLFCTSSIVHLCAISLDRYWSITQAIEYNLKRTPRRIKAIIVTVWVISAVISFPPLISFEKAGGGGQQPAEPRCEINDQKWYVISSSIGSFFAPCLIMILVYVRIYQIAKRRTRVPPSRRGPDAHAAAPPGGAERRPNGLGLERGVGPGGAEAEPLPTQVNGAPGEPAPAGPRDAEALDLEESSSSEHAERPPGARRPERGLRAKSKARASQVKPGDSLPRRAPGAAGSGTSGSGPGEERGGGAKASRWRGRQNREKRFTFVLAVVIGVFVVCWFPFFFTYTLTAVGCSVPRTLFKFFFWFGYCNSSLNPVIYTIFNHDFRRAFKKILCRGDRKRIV
The experiment in a line: Inhibition of the contraction of electrically stimulated guinea-pig ileum. The text has this: (c) Stimulation of a guinea-pig ileum. Longitudinal muscles strips attached to an isometric strain gauge are suspended in Tyrode's solution and are stretched under a tension of 1 g (G. M. DREW. Brit. J. Pharmacol. 64, (1978), 293-300; M. ANDREJAK et al., Naunyn-Schmiedelberg's Arch. Pharmacol. 314, (1980), 83-87).
Electrical stimulation of the parasympathetic nerves associated with the ileum fragments causes a contraction of the muscle. This contraction is reduced in the presence of a presynaptic α2 -agonist and the magnitude by which the contraction is reduced depends on the concentration of the agonist used. This effect is antagonized by the simultaneous presence of an α2 -antagonist such as α-yohimbine. The compounds to be studied have been tested at increasing concentrations ranging from 10^-10 to 10^-3 mole/l.
The concentration (IC50 in mole/l) that reduces by 50% the intensity of the contraction of the muscle is determined.
In the presence of α-yohimbine at a concentration of 10^-6 mole/l, the concentration of the compounds A or B, for example, that is required for reducing muscle contraction intensity by 50% is higher, and becomes greater than 10^-6 mole/l, which gives additional confirmation that the compounds of the invention act really at the level of the presynaptic α2 -adrenergic receptors.

With `Cl.NC(=O)c1cccc(Cc2c[nH]cn2)c1O` [A, 2-hydroxyl-3-[(1H-imidazol-4-yl)methyl]-benzamide hydrochloride], the IC50 on α2 -adrenergic receptors was 8.9 nM; in assay [1] (guinea-pig ileum, electrical stimulation, read-out: IC50 (reduces by 50% the intensity of the contraction of the muscle)), 7 nM; in assay [1] (in the presence of 10^-6 mole/l of α-yohimbine, read-out: concentration required for reducing muscle contraction intensity by 50%), over 1000 nM. In the assay with myocardial ischemia, the ED20 is 0.03 µmol/kg.
